According to patent US8680300B2, “Dioxanes derived from regrouping carbohydrates and C-glycosides, process for obtaining same and uses thereof” (Universidad de la Laguna, priority 2009, dated 2014):

Legend:
cell line MCF7 = experiment: Visualisation of MCF7 cultures after exposure to the compounds; assay type: cell-based, human; conditions: MCF7, 5 μM, after 4-5 hours of treatment
Description: (§1) Two stable cell lines of different origins were used for these trials: neural cell line HT22 from mouse hippocampus and line MCF7 from human breast cancer.
(§2) Both cell lines were grown in a DMEM culture medium supplemented with 10% foetal bovine serum and antibiotics at 37° C. with a 5% CO2 atmosphere. 35-mm Petri dishes were used as growth media. […] The compounds were previously diluted in DMSO.
(§3) (The control cultures of FIG. 3 were compared to the cultures of HT22 and MCF7 exposed to the compounds—FIGS. 4 and 5 respectively—).

cell line HT22 = experiment: Visualisation of HT22 cultures after exposure to the compounds; assay type: cell-based, mouse; conditions: HT22, 5 μM, after 4-5 hours of treatment
Description: as §1, §2, §3

neural cell line HT22 [1] = experiment: Cytotoxicity trial, trypan blue dye, cell line HT22; assay type: cell-based, mouse; conditions: HT22, concentrations of 1 and 5 μM
Description: as §1
(§4) Both cell lines were grown in a DMEM culture medium supplemented with 10% foetal bovine serum and antibiotics at 37° C. with a 5% CO2 atmosphere. 35-mm Petri dishes were used as growth media. When the cultures reached approximately 80% confluence they were exposed to the different compounds of the study for 24 hours at 37° C., at concentrations of 0.1, 1 and 5 μM. The compounds were previously diluted in DMSO.
(§5) For the cytotoxicity trials, after 24 hours of treatment with the compounds, the cells were treated with trypsin, resuspending them in DMEM and counting them. On one hand, an aliquot of 100 μl was preserved for the total count of the cells present in Neubauer chambers. On the other, the rest of the cell volume (approximately 1 ml) was processed for dyeing with trypan blue to visualise those cells susceptible to dyeing (non-viable cells) against intact cells (viable cells). To this end, the ViCell (Beckman Coulter) quantifier was used.

MCF7 breast cancer cells [2] = experiment: Cytotoxicity trial, trypan blue dye, cell line MCF7; assay type: cell-based, human; conditions: for cytotoxicity (conclusion, in words): MCF7, concentrations of 1 and 5 μM
Description: as §1, §4, §5

neural cell line HT22 [3] = experiment: Cell proliferation trial, cell line HT22; assay type: cell-based, mouse; conditions: for antiproliferative effect (conclusion, in words): HT22; for decrease in normal proliferation: HT22, 24 hours, versus medium (DMSO at 0.01%), concentration not given
Description: as §1, §4, §5

MCF7 breast cancer cells [4] = experiment: Cell proliferation trial, cell line MCF7; assay type: cell-based, human
Description: as §1, §4, §5

Row | SMILES | cytotoxic effect on visualisation of cultures (cell line MCF7) | cytotoxic effect on visualisation of cultures (cell line HT22) | cytotoxicity (conclusion, in words) (neural cell line HT22 [1]) | cytotoxicity (conclusion, in words) (MCF7 breast cancer cells [2]) | antiproliferative effect (conclusion, in words) (neural cell line HT22 [3]) | decrease in normal proliferation (neural cell line HT22 [3]) | toxicity (percentage of cell death, trypan blue) (MCF7 breast cancer cells [2]; MCF7, 24 hours, normalised to medium (DMSO at 0.01%), concentration not given) [%] | toxicity (in words) (MCF7 breast cancer cells [2]; MCF7, 24 hours, concentration not given) | antiproliferative effect (conclusion, in words) (MCF7 breast cancer cells [4]; MCF7) | proliferation inhibition (in words) (MCF7 breast cancer cells [4]; MCF7, 24 hours, versus medium (DMSO at 0.01%))
1 | CO[C@H]1O[C@@H](OC(C)=O)[C@H]([C@@H](COC(C)=O)OC)O[C@@H]1OC [Compound 6] | significant cytotoxic effect | significant cytotoxic effect | highly cytotoxic | highly cytotoxic | – | – | – | – | – | –
2 | CO[C@@H]1O[C@@H]2OC[C@@H](OC)[C@@H]2O[C@@H]1OC [Compound 9] | – | – | – | – | antiproliferative effects | approximately 50% | > 65 | high toxicity | – | –
3 | CO[C@@H]1O[C@@H](OC(C)=O)[C@H]([C@@H](COC(C)=O)OC)O[C@@H]1OC [Compound 7] | significant cytotoxic effect | significant cytotoxic effect | highly cytotoxic | highly cytotoxic | – | – | – | – | – | –
4 | CO[C@H]1O[C@@H]2OC[C@@H](OC)[C@@H]2O[C@@H]1OC [Compound 8] | – | – | – | – | antiproliferative effects | approximately 50% | – | – | antiproliferative effects | partial proliferation inhibition
